One may read the viability as a read-out of living cells in per cent, often relative to untreated cells.

One data set concerns Fadu cells. In words: CellTiter-Glo luminescent cell viability assay, Fadu. The conditions noted are these: 72 h, 72 h, first-set screening, mean ± SD, n = 2; for viability at 2.8 µM / viability at 8.3 µM / viability at 25 µM: Homo sapiens, FaDu; for viability at 2.8 µM: read-out: Cell Viability (% of Control) 2.8 µM, Fadu; for viability at 8.3 µM: read-out: Cell Viability (% of Control) 8.3 µM, Fadu; for viability at 25 µM: read-out: Cell Viability (% of Control) 25 µM, Fadu; for Cell Viability (% of Control) 2.8 µM / Cell Viability (% of Control) 8.3 µM / Cell Viability (% of Control) 25 µM: Fadu.

The test system of the next data set is PANC-1 cells. Briefly: CellTiter-Glo luminescent cell viability assay, PANC-1. The conditions noted are these: 72 h, first-set screening, mean ± SD, n = 2; for viability at 2.8 µM / viability at 8.3 µM / viability at 25 µM: Homo sapiens, PANC-1, 72 h; for viability at 2.8 µM: read-out: Cell Viability (% of Control) 2.8 µM, PANC-1; for viability at 8.3 µM: read-out: Cell Viability (% of Control) 8.3 µM, PANC-1; for viability at 25 µM: read-out: Cell Viability (% of Control) 25 µM, PANC-1; for Cell Viability (% of Control) 2.8 µM / Cell Viability (% of Control) 8.3 µM / Cell Viability (% of Control) 25 µM: PANC-1. (In general: In ATP-based viability assays light output follows the ATP content of the culture.)

For `NCC#Cc1ccc(CN2C(=O)C3=C(CCN(Cc4ccc(-n5cc(-c6cccc(N)c6)nn5)cc4)C3)N3CCN=C23)cc1` [1a], in the data set on Fadu cells, the viability at 2.8 µM is 106 ± 2%, the viability at 8.3 µM came out at 99 ± 2% and the viability at 25 µM is 10%. Moreover, in the data set with PANC-1 cells, the viability at 2.8 µM was 100 ± 5%, the viability at 8.3 µM came out at 93 ± 7% and the viability at 25 µM came to 3 ± 2%.
As for `O=C1C2=C(CCN(Cc3ccc(-n4cc(-[c-]5cccc5)nn4)cc3)C2)N2CCN=C2N1Cc1ccc(C#CCO)cc1.[Fe+2].c1cc[cH-]c1` [1b], in the data set on Fadu cells, the “Cell Viability (% of Control) 2.8 µM” value is given as 88 ± 4 % of Control, the “Cell Viability (% of Control) 8.3 µM” value is 83 ± 0 % of Control and the “Cell Viability (% of Control) 25 µM” value is reported as 68 ± 3 % of Control. Further, in the data set with PANC-1 cells, the “Cell Viability (% of Control) 2.8 µM” value is recorded as 92 ± 0 % of Control, the “Cell Viability (% of Control) 8.3 µM” value is given as 93 ± 3 % of Control and the “Cell Viability (% of Control) 25 µM” value was 95 ± 2 % of Control.
As to `O=C1C2=C(CCN(Cc3ccc(-n4cc(-c5ccccc5)nn4)cc3)C2)N2CCN=C2N1Cc1ccc(C#CCO)cc1` [1c], in the data set on Fadu cells, the viability at 2.8 µM came to 79%, the viability at 8.3 µM was found to be 71% and the viability at 25 µM worked out at 64 ± 2%. Also, in the data set with PANC-1 cells, the viability at 2.8 µM is 95 ± 3%, the viability at 8.3 µM is 87 ± 2% and the viability at 25 µM turned out to be 88 ± 6%.
For `Nc1cccc(-c2cn(-c3ccc(CN4CCC5=C(C4)C(=O)N(Cc4ccc(C#CCO)cc4)C4=NCCN45)cc3)nn2)c1` [1d], in the data set with Fadu cells, the viability at 2.8 µM turned out to be 99 ± 9%, the viability at 8.3 µM worked out at 96 ± 7% and the viability at 25 µM came to 84 ± 4%. Besides, in the data set with PANC-1 cells, the viability at 2.8 µM was found to be 99 ± 3%, the viability at 8.3 µM was 101 ± 3% and the viability at 25 µM worked out at 100 ± 5%.
For `C=CC(=O)Nc1cccc(-c2cn(-c3ccc(CN4CCC5=C(C4)C(=O)N(Cc4ccc(C#CCN)cc4)C4=NCCN45)cc3)nn2)c1` [1e], in the data set with Fadu cells, the viability at 2.8 µM was found to be 96 ± 6%, the viability at 8.3 µM was found to be 59 ± 4% and the viability at 25 µM was determined as 69 ± 2%. Besides, in the data set on PANC-1 cells, the viability at 2.8 µM was determined as 101 ± 7%, the viability at 8.3 µM stood at 91 ± 1% and the viability at 25 µM was found to be 102%.
In the case of `O=C1C2=C(CCN(Cc3ccc(-n4cc(-[c-]5cccc5)nn4)cc3)C2)N2CCN=C2N1Cc1cccc(C#CCO)c1.[Fe+2].c1cc[cH-]c1` [2c], in the data set on Fadu cells, the “Cell Viability (% of Control) 2.8 µM” value is reported as 79 ± 2 % of Control, the “Cell Viability (% of Control) 8.3 µM” value is 76 ± 4 % of Control and the “Cell Viability (% of Control) 25 µM” value was 65 ± 0 % of Control. Besides, in the data set on PANC-1 cells, the “Cell Viability (% of Control) 2.8 µM” value is recorded as 94 ± 2 % of Control, the “Cell Viability (% of Control) 8.3 µM” value was 95 ± 2 % of Control and the “Cell Viability (% of Control) 25 µM” value is recorded as 97 ± 2 % of Control.
`O=C1C2=C(CCN(Cc3ccc(-n4cc(-c5ccccc5)nn4)cc3)C2)N2CCN=C2N1Cc1cccc(C#CCO)c1` [2d]: in the data set on Fadu cells, the viability at 2.8 µM worked out at 99 ± 7%, the viability at 8.3 µM amounted to 90 ± 10% and the viability at 25 µM is 78 ± 6%. Moreover, in the data set on PANC-1 cells, the viability at 2.8 µM is 100 ± 8%, the viability at 8.3 µM stood at 87 ± 1% and the viability at 25 µM amounted to 81%.
As for `NCC#Cc1ccc(CN2C(=O)C3=C(CCN(Cc4cccc(-n5cc(-[c-]6cccc6)nn5)c4)C3)N3CCN=C23)cc1.[Fe+2].c1cc[cH-]c1` [3a], in the data set on Fadu cells, the “Cell Viability (% of Control) 2.8 µM” value was 104 ± 5 % of Control, the “Cell Viability (% of Control) 8.3 µM” value is listed as 100 ± 6 % of Control and the “Cell Viability (% of Control) 25 µM” value is on record as 0 ± 0 % of Control. Further, in the data set on PANC-1 cells, the “Cell Viability (% of Control) 2.8 µM” value is 101 ± 7 % of Control, the “Cell Viability (% of Control) 8.3 µM” value was 88 ± 0 % of Control and the “Cell Viability (% of Control) 25 µM” value is listed as 0 ± 0 % of Control.

The record behind these values is paper PMC11642016 (International Journal of Molecular Sciences, 2024).
